Source: ChEMBL document CHEMBL5465560, “Selectivity Literature for EUbOPEN Chemogenomic Library” (2024)

Legend:
[1] = target: T1, Dual specificity mitogen-activated protein kinase kinase 3 (Homo sapiens) (UniProt P46734); experiment: Selectivity interaction (KinomeScan (DiscoverX)) EUB0000695a MAP2K3; conditions: at 100 nM
T1 sequence (whole entry): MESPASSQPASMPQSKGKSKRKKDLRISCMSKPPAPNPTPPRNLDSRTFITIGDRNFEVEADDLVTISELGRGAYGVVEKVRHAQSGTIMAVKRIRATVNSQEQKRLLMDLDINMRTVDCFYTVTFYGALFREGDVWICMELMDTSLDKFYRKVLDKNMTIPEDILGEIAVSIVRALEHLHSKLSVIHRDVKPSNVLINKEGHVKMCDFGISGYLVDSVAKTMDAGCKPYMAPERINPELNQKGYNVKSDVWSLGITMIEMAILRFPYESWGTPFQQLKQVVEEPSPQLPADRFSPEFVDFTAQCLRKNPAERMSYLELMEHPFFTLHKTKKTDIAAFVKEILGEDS

[2] = target: Histone-lysine N-methyltransferase NSD3 (Homo sapiens, UniProt Q9BZ95); experiment: Selectivity interaction (Binding affinity assay (SPR measurement)) EUB0000270b NSD3
[3] = target: Ephrin type-A receptor 7 (Homo sapiens) (UniProt Q15375); experiment: Selectivity interaction (KinomeScan (DiscoverX)) EUB0001049a EPHA7; conditions: at 1 µM
[4] = target: Mitogen-activated protein kinase kinase kinase 21 (Homo sapiens) (UniProt Q5TCX8); experiment: Selectivity interaction (ProQinase) EUB0000171b MAP3K21
[5] = target: Ribosomal protein S6 kinase beta-1 (Homo sapiens, UniProt P23443); experiment: Selectivity interaction (Enyzmatic assay) EUB0000601a RPS6KB1
[6] = target: T2, Mitogen-activated protein kinase kinase kinase 15 (Homo sapiens) (UniProt Q6ZN16); experiment: Selectivity interaction (KinomeScan (DiscoverX)) EUB0000607a MAP3K15; conditions: at 10 µM
T2 sequence (whole entry): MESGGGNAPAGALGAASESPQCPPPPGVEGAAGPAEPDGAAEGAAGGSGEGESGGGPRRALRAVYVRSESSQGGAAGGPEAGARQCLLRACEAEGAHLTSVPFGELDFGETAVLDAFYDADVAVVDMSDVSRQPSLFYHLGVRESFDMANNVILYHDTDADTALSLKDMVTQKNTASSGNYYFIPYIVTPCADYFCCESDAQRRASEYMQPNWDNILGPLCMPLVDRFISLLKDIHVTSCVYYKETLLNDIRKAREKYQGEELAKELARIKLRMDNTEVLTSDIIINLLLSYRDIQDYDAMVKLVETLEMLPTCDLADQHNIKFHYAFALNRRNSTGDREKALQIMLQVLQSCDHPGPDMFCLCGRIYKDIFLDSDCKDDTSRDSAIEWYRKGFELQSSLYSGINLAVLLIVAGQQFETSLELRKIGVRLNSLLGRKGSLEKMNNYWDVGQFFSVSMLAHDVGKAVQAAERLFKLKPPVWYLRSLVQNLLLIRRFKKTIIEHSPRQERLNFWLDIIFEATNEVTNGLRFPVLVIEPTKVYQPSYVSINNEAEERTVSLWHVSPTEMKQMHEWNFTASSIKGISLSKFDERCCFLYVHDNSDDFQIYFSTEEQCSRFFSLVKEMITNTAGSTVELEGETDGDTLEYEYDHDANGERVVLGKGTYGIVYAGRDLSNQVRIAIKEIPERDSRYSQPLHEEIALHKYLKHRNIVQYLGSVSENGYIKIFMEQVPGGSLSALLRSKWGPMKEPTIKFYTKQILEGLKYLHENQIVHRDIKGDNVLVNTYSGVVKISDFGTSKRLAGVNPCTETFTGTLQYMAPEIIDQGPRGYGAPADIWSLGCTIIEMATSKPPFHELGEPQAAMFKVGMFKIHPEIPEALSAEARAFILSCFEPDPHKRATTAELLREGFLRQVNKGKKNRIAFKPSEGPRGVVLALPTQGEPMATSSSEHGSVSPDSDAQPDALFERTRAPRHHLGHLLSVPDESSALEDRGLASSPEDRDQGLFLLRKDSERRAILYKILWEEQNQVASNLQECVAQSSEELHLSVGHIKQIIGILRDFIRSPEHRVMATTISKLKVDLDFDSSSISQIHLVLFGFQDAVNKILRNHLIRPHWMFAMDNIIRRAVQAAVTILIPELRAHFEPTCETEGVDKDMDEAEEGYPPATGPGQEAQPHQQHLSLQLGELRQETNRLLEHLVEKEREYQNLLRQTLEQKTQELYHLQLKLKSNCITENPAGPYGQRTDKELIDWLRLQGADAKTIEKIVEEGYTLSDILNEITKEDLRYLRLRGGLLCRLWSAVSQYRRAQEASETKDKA

[7] = target: Tyrosine-protein kinase Fyn (Homo sapiens) (UniProt P06241); experiment: Selectivity interaction (KinomeScan (DiscoverX)) EUB0000618a FYN; conditions: at 10 µM
[8] = target: T3, Mitogen-activated protein kinase 15 (Homo sapiens) (UniProt Q8TD08); experiment: Selectivity interaction (KinomeScan (DiscoverX)) EUB0000655a MAPK15; conditions: at 10 µM
T3 sequence (whole entry): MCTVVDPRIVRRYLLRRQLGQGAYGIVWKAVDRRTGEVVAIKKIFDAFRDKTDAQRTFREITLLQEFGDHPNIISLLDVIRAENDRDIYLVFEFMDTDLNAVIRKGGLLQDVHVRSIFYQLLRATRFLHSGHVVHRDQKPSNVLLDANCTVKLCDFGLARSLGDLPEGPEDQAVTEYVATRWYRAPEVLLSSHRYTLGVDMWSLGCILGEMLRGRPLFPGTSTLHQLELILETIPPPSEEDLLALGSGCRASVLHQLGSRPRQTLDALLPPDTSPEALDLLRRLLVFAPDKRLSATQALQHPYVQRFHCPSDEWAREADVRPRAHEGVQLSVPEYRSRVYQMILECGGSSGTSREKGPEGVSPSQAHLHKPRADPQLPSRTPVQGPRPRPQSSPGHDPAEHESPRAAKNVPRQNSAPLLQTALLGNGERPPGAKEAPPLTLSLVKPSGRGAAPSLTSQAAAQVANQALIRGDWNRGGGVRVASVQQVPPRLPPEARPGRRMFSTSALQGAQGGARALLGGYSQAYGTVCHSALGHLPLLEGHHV

Sequence of Mitogen-activated protein kinase kinase kinase 21 (Homo sapiens) (Q5TCX8 whole entry): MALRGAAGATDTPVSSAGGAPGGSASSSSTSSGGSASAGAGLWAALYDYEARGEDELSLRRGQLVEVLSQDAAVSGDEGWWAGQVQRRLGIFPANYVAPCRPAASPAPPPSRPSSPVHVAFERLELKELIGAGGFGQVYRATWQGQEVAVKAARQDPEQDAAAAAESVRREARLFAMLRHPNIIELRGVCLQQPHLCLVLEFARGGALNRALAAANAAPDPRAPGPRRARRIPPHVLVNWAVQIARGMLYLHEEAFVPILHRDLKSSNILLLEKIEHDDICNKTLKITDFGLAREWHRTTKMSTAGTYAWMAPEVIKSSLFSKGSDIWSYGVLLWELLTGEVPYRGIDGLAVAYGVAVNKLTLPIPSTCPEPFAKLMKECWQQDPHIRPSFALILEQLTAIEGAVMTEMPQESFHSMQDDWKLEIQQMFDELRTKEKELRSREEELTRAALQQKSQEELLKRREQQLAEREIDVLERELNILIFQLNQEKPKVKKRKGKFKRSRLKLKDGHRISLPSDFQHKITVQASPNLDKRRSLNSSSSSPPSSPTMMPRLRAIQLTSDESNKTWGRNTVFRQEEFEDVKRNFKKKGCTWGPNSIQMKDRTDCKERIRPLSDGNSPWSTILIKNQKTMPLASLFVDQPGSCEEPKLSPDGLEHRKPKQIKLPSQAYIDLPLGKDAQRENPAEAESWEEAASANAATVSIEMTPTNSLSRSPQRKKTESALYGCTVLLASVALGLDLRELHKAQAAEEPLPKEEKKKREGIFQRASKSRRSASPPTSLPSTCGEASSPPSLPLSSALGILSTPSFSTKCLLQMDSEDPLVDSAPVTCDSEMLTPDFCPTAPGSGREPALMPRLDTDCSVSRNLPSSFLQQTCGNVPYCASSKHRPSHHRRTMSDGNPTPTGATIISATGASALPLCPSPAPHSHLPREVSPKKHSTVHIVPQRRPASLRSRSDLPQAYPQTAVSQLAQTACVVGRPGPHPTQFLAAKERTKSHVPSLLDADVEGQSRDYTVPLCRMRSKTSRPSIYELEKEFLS
Sequence of Tyrosine-protein kinase Fyn (Homo sapiens) (P06241 2-537 limits assumed): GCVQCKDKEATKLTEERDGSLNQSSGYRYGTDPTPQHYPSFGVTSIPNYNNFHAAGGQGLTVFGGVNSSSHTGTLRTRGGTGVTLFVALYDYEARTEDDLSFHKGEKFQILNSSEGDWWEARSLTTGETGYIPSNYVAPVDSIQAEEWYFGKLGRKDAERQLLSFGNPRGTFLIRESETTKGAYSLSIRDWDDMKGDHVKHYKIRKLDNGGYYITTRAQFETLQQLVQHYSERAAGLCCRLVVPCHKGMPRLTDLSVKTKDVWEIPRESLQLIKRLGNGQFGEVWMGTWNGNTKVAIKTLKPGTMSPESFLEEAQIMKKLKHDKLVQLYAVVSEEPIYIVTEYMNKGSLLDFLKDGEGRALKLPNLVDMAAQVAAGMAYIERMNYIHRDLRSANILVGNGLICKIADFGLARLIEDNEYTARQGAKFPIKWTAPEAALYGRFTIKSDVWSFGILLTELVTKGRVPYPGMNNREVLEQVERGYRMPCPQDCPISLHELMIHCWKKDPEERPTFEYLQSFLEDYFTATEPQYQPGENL
Sequence of Ribosomal protein S6 kinase beta-1 (P23443 whole entry): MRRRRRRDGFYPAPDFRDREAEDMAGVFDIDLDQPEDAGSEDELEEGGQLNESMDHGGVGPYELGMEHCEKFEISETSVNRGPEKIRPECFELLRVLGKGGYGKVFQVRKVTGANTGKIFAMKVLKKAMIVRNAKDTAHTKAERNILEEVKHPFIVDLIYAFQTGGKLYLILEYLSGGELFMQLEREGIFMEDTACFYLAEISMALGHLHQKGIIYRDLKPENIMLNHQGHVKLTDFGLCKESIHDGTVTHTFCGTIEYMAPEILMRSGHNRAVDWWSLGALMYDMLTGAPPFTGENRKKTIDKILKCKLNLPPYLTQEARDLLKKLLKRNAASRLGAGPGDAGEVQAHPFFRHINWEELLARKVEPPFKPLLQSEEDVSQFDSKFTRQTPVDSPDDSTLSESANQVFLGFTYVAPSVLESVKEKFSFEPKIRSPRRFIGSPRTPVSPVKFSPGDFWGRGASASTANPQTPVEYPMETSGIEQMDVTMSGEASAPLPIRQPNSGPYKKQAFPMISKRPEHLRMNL
Sequence of Ephrin type-A receptor 7 (Homo sapiens) (Q15375 28-998 limits assumed): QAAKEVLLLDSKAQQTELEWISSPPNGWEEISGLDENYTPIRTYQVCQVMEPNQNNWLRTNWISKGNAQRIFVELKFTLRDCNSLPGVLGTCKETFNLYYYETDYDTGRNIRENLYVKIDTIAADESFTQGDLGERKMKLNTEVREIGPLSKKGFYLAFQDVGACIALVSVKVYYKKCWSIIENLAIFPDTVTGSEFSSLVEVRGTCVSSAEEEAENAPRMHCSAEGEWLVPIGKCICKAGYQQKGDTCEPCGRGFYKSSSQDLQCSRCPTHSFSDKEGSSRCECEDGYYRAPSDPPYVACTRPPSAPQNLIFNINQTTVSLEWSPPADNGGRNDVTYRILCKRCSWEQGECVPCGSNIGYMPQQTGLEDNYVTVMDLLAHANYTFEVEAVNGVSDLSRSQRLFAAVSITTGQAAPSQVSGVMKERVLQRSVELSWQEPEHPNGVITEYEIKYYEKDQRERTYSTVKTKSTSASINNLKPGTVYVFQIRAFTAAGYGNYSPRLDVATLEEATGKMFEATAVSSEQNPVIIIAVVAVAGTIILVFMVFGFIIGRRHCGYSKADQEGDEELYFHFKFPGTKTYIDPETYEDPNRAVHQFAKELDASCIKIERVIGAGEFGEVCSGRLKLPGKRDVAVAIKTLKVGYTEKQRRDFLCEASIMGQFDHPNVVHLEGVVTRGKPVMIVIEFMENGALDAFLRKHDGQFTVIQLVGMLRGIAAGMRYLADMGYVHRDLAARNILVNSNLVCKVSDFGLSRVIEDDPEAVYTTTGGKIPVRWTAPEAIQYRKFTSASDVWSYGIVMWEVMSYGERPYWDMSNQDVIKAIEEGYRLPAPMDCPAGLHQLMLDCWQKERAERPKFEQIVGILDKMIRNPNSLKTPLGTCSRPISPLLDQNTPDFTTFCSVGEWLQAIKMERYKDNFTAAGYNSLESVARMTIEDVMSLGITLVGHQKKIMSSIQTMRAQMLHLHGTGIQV
Sequence of Histone-lysine N-methyltransferase NSD3 (Q9BZ95 whole entry): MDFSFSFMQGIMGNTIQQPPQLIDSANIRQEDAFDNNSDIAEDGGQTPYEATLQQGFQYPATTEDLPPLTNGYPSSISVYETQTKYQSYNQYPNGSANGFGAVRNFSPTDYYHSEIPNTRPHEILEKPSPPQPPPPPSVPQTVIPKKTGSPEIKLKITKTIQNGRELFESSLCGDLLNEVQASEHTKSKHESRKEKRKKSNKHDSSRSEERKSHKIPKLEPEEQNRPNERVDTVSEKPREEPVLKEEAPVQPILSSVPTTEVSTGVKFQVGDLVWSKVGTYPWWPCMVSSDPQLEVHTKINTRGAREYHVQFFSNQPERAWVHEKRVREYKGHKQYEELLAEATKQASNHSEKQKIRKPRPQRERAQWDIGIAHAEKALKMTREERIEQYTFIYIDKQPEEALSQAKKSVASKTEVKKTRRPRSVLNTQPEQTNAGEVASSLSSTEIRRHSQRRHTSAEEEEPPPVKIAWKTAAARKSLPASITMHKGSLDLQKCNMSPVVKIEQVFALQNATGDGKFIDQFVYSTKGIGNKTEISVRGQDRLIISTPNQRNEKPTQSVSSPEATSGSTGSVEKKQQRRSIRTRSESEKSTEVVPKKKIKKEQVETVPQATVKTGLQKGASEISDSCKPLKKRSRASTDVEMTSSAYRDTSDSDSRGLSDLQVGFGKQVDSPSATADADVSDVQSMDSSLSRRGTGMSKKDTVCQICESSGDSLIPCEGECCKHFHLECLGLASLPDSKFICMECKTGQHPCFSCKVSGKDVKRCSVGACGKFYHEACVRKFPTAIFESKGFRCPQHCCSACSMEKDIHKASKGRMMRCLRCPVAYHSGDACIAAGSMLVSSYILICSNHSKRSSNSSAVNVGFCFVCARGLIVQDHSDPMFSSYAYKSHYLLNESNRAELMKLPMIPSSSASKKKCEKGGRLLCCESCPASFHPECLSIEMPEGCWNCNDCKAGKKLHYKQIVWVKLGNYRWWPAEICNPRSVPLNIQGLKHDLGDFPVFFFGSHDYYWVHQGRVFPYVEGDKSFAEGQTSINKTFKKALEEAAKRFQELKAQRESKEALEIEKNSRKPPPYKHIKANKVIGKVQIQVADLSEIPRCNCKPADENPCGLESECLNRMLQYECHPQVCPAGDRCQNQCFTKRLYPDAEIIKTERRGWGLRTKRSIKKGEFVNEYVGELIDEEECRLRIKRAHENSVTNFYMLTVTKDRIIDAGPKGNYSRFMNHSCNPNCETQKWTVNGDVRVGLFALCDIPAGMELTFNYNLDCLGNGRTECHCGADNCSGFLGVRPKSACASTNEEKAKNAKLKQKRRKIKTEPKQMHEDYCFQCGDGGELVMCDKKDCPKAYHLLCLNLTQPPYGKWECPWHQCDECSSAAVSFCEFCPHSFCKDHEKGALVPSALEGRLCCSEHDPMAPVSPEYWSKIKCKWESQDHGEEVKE

Structure (SMILES): Cc1cc(F)c(C(=O)Nc2cccc(-c3nncn3C(C)C)n2)cc1-n1cnc(C2CC2)c1
- % of control [1]: 89%

Structure (SMILES): Cc1cc(CN)cc(C)c1-c1ncn(C)c1-c1cncn1C
- Kd [2]: 144 µM

Structure (SMILES): COc1cc(Nc2nc(C)cc(-c3cnn4nc(OC)ccc34)n2)cc(C(F)(F)F)c1
- % of control [3]: 77%

Structure (SMILES): C=CC(=O)Nc1cccc(C(=O)Nc2ccc(Nc3cc(-c4[nH]c(SC)nc4C)ccn3)cc2)c1
- % of control ([4]; at 1 µM): 81%
- % of control ([4]; at 5 µM): 59%

Structure (SMILES): CCc1cc(Nc2nccc(-c3c(-c4ccc(OC)c(C(=O)Nc5c(F)cccc5F)c4)nc4ccccn34)n2)c(OC)cc1N1CCC(N2CCN(S(C)(=O)=O)CC2)CC1
- IC50 [5]: > 10 µM

Structure (SMILES): CNC(=O)Nc1ccc(-c2nc(N3CC4CCC(C3)O4)c3cnn(C4CCC5(CC4)OCCO5)c3n2)cc1
- % of control [6]: 100%

Structure (SMILES): O[C@H]1CC[C@H](Nc2ncc3nc(Nc4c(F)cc(F)cc4F)n([C@H]4CCOC4)c3n2)CC1
- % of control [7]: 100%

Structure (SMILES): CN(C)CCOc1ccc(-c2nc(-c3ccncc3)c(-c3ccc4c(c3)CC/C4=N\O)[nH]2)cc1
- % of control [8]: 100%
